Measured values reported in US7115574B2, “System and method for support legacy operating system booting in a legacy-free system” (priority 2001, dated 2006).

Experiments:
C. albicans = experiment: Horse serum-induced germ tube formation (germination) of C. albicans; format: cell-based; details: 10^−6M, 60 minutes at 37° C. after horse serum induction
Protocol: C. albicans from stationary phase cultures were washed twice with distilled water and suspended in HBSS to a final concentration of 2×10^6/ml. Hyphal growth was induced by addition of 10% inactivated horse serum (GIBCO/BRL, Great Britain) to yeast incubated for 45 minutes at 37° C. with continuous shaking. Horse serum was removed by washing cells twice with HBSS and incubation was continued for 60 minutes at 37° C. in the presence of α-MSH(1-13) (SEQ ID NO: 3), (6-13) (SEQ ID NO: 2) or (11-13) (SEQ ID NO: 1) at a concentration of 10^−6M with continuous shaking. The percentage of filamentous cells was evaluated under a light microscope with the aid of hemocytometer. Experiments were run in triplicate and at least 200 cells were scored. Photomicrographs were taken with a MC100 camera attached to an Axioskop Zeiss microscope.

[1] = test system: histamine-induced blue weal formation; experiment: Sparrow/Wilhelm histamine-induced blue weal assay; format: in vivo, New Zealand white rabbits; details: for Result (relative intensity of blue weals, experimental vs control): scored 30 minutes after histamine
Text: This model relies on the principal that localized, subcutaneous injections of histamine will result in a localized increase in capillary permeability. When the test animal has been pretreated with blue dye intravenously, the localized histamine injections will elicit blue-colored “weals” around the injection site. Thus, by preadministration of an effective anti-inflammatory agent the blue color of the histamine-induced weals will be much less pronounced, with the amount of color reduction being dependent on the relative amount and/or potency of the anti-inflammatory agent used.
Non-moulting New Zealand white rabbits were used for the Sparrow/Wilhelm assay. The skin of the rabbits back was closely clipped 1-2 days previous to the experiment, but not depilated, and the rabbits were kept warm until tested. […] Control rabbits received sham injections. Fifteen minutes following injection of the agent or sham, the rabbits received approximately 30 mg/kg of Pontamine blue dye as a 2.5% solution in 0.45% saline, into an exposed vein. Immediately following dye injections, histamine was injected intradermally in a 0.10 ml volume (1.25 mg histamine 0.1 ml volume) at several sites on each side of the spine. In all, one vertical row of six injections were made on each side of the spine. The relative intensity of the resultant blue weals were scored by an independent observer 30 minutes after histamine injection.

[2] = test system: carrageenan-induced swelling in rat paws; experiment: Rat paw edema test (carrageenan); format: in vivo, Sprague-Dawley rats; details: 100 mg/kg intraperitoneal, rats
Protocol: A second in vivo bioassay for anti-inflammatory activity was conducted in which the action of the tripeptide (SEQ ID NO: 1) was compared to that of hydrocortisone. In this assay, the two agents were given at similar doses and tested for their independent ability to inhibit carrageenan-induced swelling in rat paws. This assay, the rat paw edema test, was conducted generally as it is typically performed in the art, for example, as described by Winter et al. (1962), Proc. Soc. Exp. Biol. Med., 111:544 or in U.S. Pat. No. 4,150,137.
Briefly, the assay was performed as follows. Each of twenty-four male Sprague-Dawley rats was assigned to one of four groups: Tripeptide treatment and controls (matched according to body weight and initial paw volume), hydrocortisone treatment and matched controls. The volume of the right rear paw of the test and control animals was determined using standard procedures and a mercury displacement volumetric technique. […] One hour later 0.5 ml of 1% lambda carrageenan in saline solution was injected into the right rear paw of the animals and the paw volume was again recorded (baseline measure). For comparison of the effects of the two treatments, paw volume of experimental animals measured at hourly intervals was expressed as a percentage of the volume change of their respective matched controls.

[3] = test system: inflammation induced in the ear by picryl chloride application; experiment: Picryl chloride-induced ear swelling; format: in vivo, BALB/C mice; details: for % Inhibition 3 h: 3 h after picryl chloride; for % Inhibition 6 h: 6 h after picryl chloride
Protocol: Hiltz, M. E., Catania, A., Lipton, J. M., Anti-Inflammatory Activity of aα-MSH (11-13) Analogs: Influence of Alteration in Stereochemistry, 12 Peptides 767 (1981). […] Female BALB/C mice (Simonsen Laboratories), 7 weeks old, were housed at 23-25° C. in groups of no more than 5 per cage [28 cm (L)×18 cm (W)×13 cm (H)]. They were allowed to acclimatize to standard lighting and temperature conditions for at least 1 week, with food and water available ad lib, before the experiment began. Five to ten animals were randomly assigned to each treatment group each test day, and all experiments were repeated at least twice to confirm reproducibility. To reduce error due to slight differences in responses to the irritant of animals from different shipments, tests of each agent were performed as separate experiments in which experimental and control animals were drawn from the same shipment.
In the experiments each animal was anesthetized with 1 mg of pentobarbital sodium solution ([…], Nembutal, Abbott Laboratories, Abbott park, Ill.). Baseline ear thickness was measured for both ears with a spring-loaded micrometer (Swiss Precision Instruments, Los Angeles, Calif.). Ear thickness was expressed in units of 10^−3 cm; the average thickness of unstimulated ears was approximately 25-30×10^−3 cm. After baseline measurements were taken, one of six solutions was injected IP. […] The doses of the tripeptides were 10 μg (2.6×.10^−8 M), 20 μg (5.2×.10^−8 M), 40 μg (1.04×.10^−7 M), and 80 μg (2.08×.10^−7 M). Immediately after saline or α-MSH injection, a micropipette was used to coat both sides of each ear with 10 μl […] of a 0.5% picryl chloride (Polysciences, Warrington, Pa.) solution in acetone.
Ear thickness was remeasured 3 and 6 h after picryl chloride application. Swelling was determined by subtracting baseline thickness from the measurements for each ear at 3 and 6 h. The differences for both ears were then averaged for the final analysis.
Repeated-measure ANOVA techniques were used to determine if there was an overall difference among group data for each peptide tested in separate experiments. In those cases in which the ANOVA yielded significant results, Dunnett's test was then used to compare the effects of peptide doses with control (saline) data for each of the two time periods, 3 and 6 h.

[4] = Lipton and Catania, Immunol. Today 1997; cited from earlier work

Substance	reduction in the number of filamentous cells / inhibition of germ tube formation (C. albicans)	reduction in the number of filamentous cells / inhibition of germ tube formation (C. albicans; listed as tripeptide)	Result (relative intensity of blue weals, experimental vs control) ([1]; 0.625 ug/kg protected tripeptide intravenously)	Result (relative intensity of blue weals, experimental vs control) ([1]; 1.25 ug/kg protected tripeptide intravenously)	Result (relative intensity of blue weals, experimental vs control) ([1]; 5 ug/kg protected tripeptide intravenously)	Result (relative intensity of blue weals, experimental vs control) ([1]; 10 ug/kg protected tripeptide intravenously)	lowest intravenous dose giving appreciable reduction in histamine-induced blue weal formation ([1]; rabbits, intravenous) [µg/kg]	anti-inflammatory activity (inhibition of paw edema) ([2]; between 1 and 4 hours)	decrease in paw inflammation ([2]; first hour after carrageenan injection)	% Inhibition 3 h ([3]; 10 μg IP) [%]	% Inhibition 6 h ([3]; 10 μg IP) [%]	% Inhibition 3 h ([3]; 20 μg IP) [%]	% Inhibition 6 h ([3]; 20 μg IP) [%]	% Inhibition 3 h ([3]; 40 μg IP) [%]	% Inhibition 6 h ([3]; 40 μg IP) [%]	% Inhibition 3 h ([3]; 80 μg IP) [%]	% Inhibition 6 h ([3]; 80 μg IP) [%]	overall effect on inflammation (ANOVA) ([3]; 10-80 μg IP, 3 and 6 h)	toxicity [4]
Ac-Lys-Pro-Val-NH2 [α-MSH(11-13)]	approximately 56%	54-58%	No difference	E lighter than C	E lighter than C	E lighter than C	1.25	nearly identical anti-inflammatory activity	no such reduction was observed	26	25	21	19	33	26	50	42	inhibited acute inflammation	–
SYSMEHFRWGKPV [α-MSH(1-13)]	–	–	–	–	–	–	–	–	–	–	–	–	–	–	–	–	–	–	very low toxicity
